In patent US9650390B2, “Water-soluble taxane derivatives and uses thereof” (priority 2014, dated 2017):
Counter-ions that a name gives are not always drawn.

Experiments:
[1] = In vitro dissociation in blood plasma of rat; type: in vitro ADME, SD rats; conditions: fresh SD rat plasma, 37° C.; for Sampling time/Dissociation percent (%) 2 min: 2 min incubation; for Sampling time/Dissociation percent (%) 5 min: 5 min incubation; for Sampling time/Dissociation percent (%) 10 min: 10 min incubation
Method: The obtained water soluble taxane derivatives of the following formulae were formulated as 0.2 mg/ml aqueous solutions. […] After 2 min, 5 min and 10 min of incubation, 0.2 ml of solutions were respectively taken from each of the samples, and added to acetonitrile (0.4 ml) cooled to −20° C. for precipitation of protein.

[2] = In vitro dissociation in blood plasma of rabbit; type: in vitro ADME, New Zealand white rabbits; conditions: fresh New Zealand white rabbit plasma, 37° C.
Method: The obtained water soluble taxane derivatives of the following formulae were formulated as 0.2 mg/ml aqueous solutions. […]

[3] = system: human prostate cancer PC-3; test: Inhibitory activity of docetaxel derivatives on subcutaneously xenografted tumor PC-3 in nude mice; type: in vivo; conditions: 33.6 mg/kg, D0 IV; for Weight change (%) D6: nude mice; for T/C (%) D20 / Tumor volume (mm^3) (D20) / Tumor inhibitory percent (%) D20 / Tumor volume (mm^3) (D0): PC-3 xenograft in nude mice; for Tumor inhibitory percent (%) D20: P = 0.000 vs control; for Tumor volume (mm^3) (D0): baseline at grouping (D0)
Description: Purpose: to evaluate and compare the inhibitory activity of the water soluble docetaxel derivatives and docetaxel on subcutaneously xenografted tumor of human prostate cancer PC-3 in nude mice
Human prostate cancer PC-3 cells were subcutaneously inoculated into nude mice. After the tumor volume reached 100-150 mm^3, the animals were randomly divided into several groups, and administered with the water soluble docetaxel derivatives of the following formula and docetaxel, respectively once on the same day (D0). The tumor volume was measured 2-3 times per week, the animals were weighed and the data were recorded until day 20 (D20) after grouping.
The tumor volume (V) was calculated according to the equation: V=½×a×b^2, wherein a and b represent the length and the width, respectively.
T/C (%)=(T−T0)/(C−C0)×100, wherein T and C represent the tumor volume at the end of the experiment; and T0 and C0 represent the tumor volume at the beginning of the experiment.

Compound | Sampling time/Dissociation percent (%) 2 min [1] [%] | Sampling time/Dissociation percent (%) 5 min [1] [%] | Sampling time/Dissociation percent (%) 10 min [1] [%] | Sampling time/Dissociation percent (%) 2 min [2] [%] | Sampling time/Dissociation percent (%) 5 min [2] [%] | Sampling time/Dissociation percent (%) 10 min [2] [%] | Weight change (%) D6 [3] [%] | T/C (%) D20 [3] [%] | Tumor volume (mm^3) (D20) [3] | Tumor inhibitory percent (%) D20 [3] [%] | Tumor volume (mm^3) (D0) [3]
COC1C(=O)C2(C)C(OC)CC3OCC3(OC(C)=O)C2C(OC(=O)c2ccccc2)C2(O)CC(OC(=O)C(OC(=O)C(F)CCN(C)C)C(NC(=O)OC(C)(C)C)c3ccccc3)C(C)=C1C2(C)C.Cl [Compound 09, 2′-O-[4-N,N-dimethylamino-2(R,S)-fluorobutyryl]cabazitaxel hydrochloride] | 47.8 | 89.1 | 100 | 83.2 | 97.1 | 100 |  |  |  |  | 
CC(=O)O[C@@]12CO[C@@H]1C[C@H](O)[C@@]1(C)C(=O)[C@H](O)C3=C(C)[C@@H](OC(=O)[C@H](OC(=O)[C@@H](CCN(C)C)C(F)(F)F)[C@@H](NC(=O)OC(C)(C)C)c4ccccc4)C[C@@](O)([C@@H](OC(=O)c4ccccc4)[C@H]21)C3(C)C.CS(=O)(=O)O [Compound C28, 2′-O-[4-N,N-dimethylamino-2(R)-2-trifluoromethylbutyryl]docetaxel methanesulfonate] |  |  |  |  |  |  | −13.9 | −46 | 34.5 ± 12.6 | 105 | 113.5 ± 2.8
CCN(CC)CCC(F)C(=O)OC(C(=O)OC1CC2(O)C(OC(=O)c3ccccc3)C3C4(OC(C)=O)COC4CC(O)C3(C)C(=O)C(O)C(=C1C)C2(C)C)C(NC(=O)OC(C)(C)C)c1ccccc1.O=C(O)C=CC(=O)O [Compound C26, 2′-O-[4-N,N-diethylamino-2(S)-fluorobutyryl]docetaxel maleate] |  |  |  |  |  |  | −14.1 | −52 | 32.4 ± 13.5 | 120 | 114.4 ± 2.8
CCCC(CC(F)(F)C(=O)O[C@@H](C(=O)O[C@H]1C[C@@]2(O)[C@@H](OC(=O)c3ccccc3)[C@@H]3[C@]4(OC(C)=O)CO[C@@H]4C[C@H](O)[C@@]3(C)C(=O)[C@H](O)C(=C1C)C2(C)C)[C@@H](NC(=O)OC(C)(C)C)c1ccccc1)N1CC1.Cl (some centres unmarked) [Compound C14, 2′-O-[4-(aziridin-1-yl)amino-2,2-difluoroheptanoyl]docetaxel hydrochloride] | 41.9 | 54.4 | 71.3 |  |  |  |  |  |  |  | 
CC(=O)O[C@@]12CO[C@@H]1C[C@H](O)[C@@]1(C)C(=O)[C@H](O)C3=C(C)[C@@H](OC(=O)[C@H](OC(=O)C(CCN(C)C)C(F)F)[C@@H](NC(=O)OC(C)(C)C)c4ccccc4)C[C@@](O)([C@@H](OC(=O)c4ccccc4)[C@H]21)C3(C)C.Cl (stereo partly drawn) [Compound C29, 2′-O-[4-N,N-dimethylamino-2(R,S)-2-difluoromethylbutyryl]docetaxel hydrochloride] |  |  |  |  |  |  | −15.1 | −37 | 36.8 ± 13.4 | 85 | 116.7 ± 3.1
CCN(C)C(C)C[C@H](CC(F)F)C(=O)O[C@@H](C(=O)O[C@H]1C[C@@]2(O)[C@@H](OC(=O)c3ccccc3)[C@@H]3[C@]4(OC(C)=O)CO[C@@H]4C[C@H](O)[C@@]3(C)C(=O)[C@H](O)C(=C1C)C2(C)C)[C@@H](NC(=O)OC(C)(C)C)c1ccccc1.Cl (stereo partly drawn) [Compound 12, 2′-O-[4-N-methyl-N-ethylamino-2(R)-2-difluoroethylvaleryl]docetaxel hydrochloride] | 43.6 | 75.6 | 89.6 | 35.2 | 61.3 | 73.2 |  |  |  |  | 
CO[C@H]1C(=O)[C@]2(C)[C@@H](OC)C[C@H]3OC[C@@]3(OC(C)=O)[C@H]2[C@H](OC(=O)c2ccccc2)[C@]2(O)C[C@H](OC(=O)[C@H](OC(=O)[C@@H](CCN)C(F)F)[C@@H](NC(=O)OC(C)(C)C)c3ccccc3)C(C)=C1C2(C)C.O=S(=O)(O)O [Compound C10, 2′-O-[4-amino-2(R)-difluoromethylbutyryl]cabazitaxel sulfate] | 45.6 | 87.1 | 97.3 | 48.9 | 68.4 | 91.3 |  |  |  |  | 
2′-O-[4-(aziridin-1-yl)amino-2,2-difluoroheptanoyl]docetaxel methanesulfonate [Compound 14] | 42.1 | 55.7 | 72.5 |  |  |  |  |  |  |  | 
CO[C@H]1C(=O)[C@]2(C)[C@@H](OC)C[C@H]3OC[C@@]3(OC(C)=O)[C@H]2[C@H](OC(=O)c2ccccc2)[C@]2(O)C[C@H](OC(=O)[C@H](OC(=O)[C@H](F)CCN(C)C)[C@@H](NC(=O)OC(C)(C)C)c3ccccc3)C(C)=C1C2(C)C [Compound 07, 2′-O-[4-N,N-dimethylamino-2(R)-fluorobutyryl]cabazitaxel hydrochloride] | 49.5 | 89.6 | 100 | 79.2 | 95.5 | 100 |  |  |  |  | 
CCN(CC)CC[C@](C)(C(=O)O[C@@H](C(=O)O[C@H]1C[C@@]2(O)[C@@H](OC(=O)c3ccccc3)[C@@H]3[C@]4(OC(C)=O)CO[C@@H]4C[C@H](OC)[C@@]3(C)C(=O)[C@H](OC)C(=C1C)C2(C)C)[C@@H](NC(=O)OC(C)(C)C)c1ccccc1)C(F)(F)F.Cl [Compound C11, 2′-O-[4-N,N-diethylamino-2-methyl-2(R)-2-trifluoromethylbutyryl]cabazitaxel hydrochloride] | 51.2 | 88.4 | 95.9 | 61.2 | 84.5 | 96.3 |  |  |  |  | 
CCN(CC)CC[C@](C)(C(=O)O[C@@H](C(=O)O[C@H]1C[C@@]2(O)[C@@H](OC(=O)c3ccccc3)[C@@H]3[C@]4(OC(C)=O)CO[C@@H]4C[C@H](OC)[C@@]3(C)C(=O)[C@H](OC)C(=C1C)C2(C)C)[C@@H](NC(=O)OC(C)(C)C)c1ccccc1)C(F)(F)F.CS(=O)(=O)O [Compound 11, 2′-O-[4-N,N-diethylamino-2-methyl-2(R)-2-trifluoromethylbutyryl]cabazitaxel methanesulfonate] | 52.3 | 89.6 | 97.2 | 56.2 | 80.5 | 92.1 |  |  |  |  | 
CO[C@H]1C(=O)[C@]2(C)[C@@H](OC)C[C@H]3OC[C@@]3(OC(C)=O)[C@H]2[C@H](OC(=O)c2ccccc2)[C@]2(O)C[C@H](OC(=O)[C@H](OC(=O)[C@@H](F)CCN(C)C)[C@@H](NC(=O)OC(C)(C)C)c3ccccc3)C(C)=C1C2(C)C.Cl [Compound 08, 2′-O-[4-N,N-dimethylamino-2(S)-fluorobutyryl]cabazitaxel hydrochloride] | 47.6 | 87.6 | 100 | 89.9 | 93.2 | 100 |  |  |  |  | 
CCN(C)CCC(F)C(=O)OC(C(=O)OC1CC2(O)C(OC(=O)c3ccccc3)C3C4(OC(C)=O)COC4CC(O)C3(C)C(=O)C(O)C(=C1C)C2(C)C)C(NC(=O)OC(C)(C)C)c1ccccc1.CS(=O)(=O)O [Compound C25, 2′-O-[4-N-methyl-N-ethylamino-2(R)-fluorobutyryl]docetaxel methanesulfonate] |  |  |  |  |  |  | −13.6 | −62 | 30.4 ± 11.1 | 143 | 113.8 ± 3.0
COC1C(=O)C2(C)C(OC)CC3OCC3(OC(C)=O)C2C(OC(=O)c2ccccc2)C2(O)CC(OC(=O)C(OC(=O)C(CCN)C(F)F)C(NC(=O)OC(C)(C)C)c3ccccc3)C(C)=C1C2(C)C.O=S(=O)([O-])O.[Na+] [Compound 10, 2′-O-[4-amino-2(R)-difluoromethylbutyryl]cabazitaxel sodium bisulfate salt] | 45.2 | 86.5 | 96.8 | 38.1 | 63.2 | 80.3 |  |  |  |  | 
CCCCC(CC(F)(C(=O)OC(C(=O)OC1CC2(O)C(OC(=O)c3ccccc3)C3C4(OC(C)=O)COC4CC(O)C3(C)C(=O)C(OC(C)=O)C(=C1C)C2(C)C)C(NC(=O)c1ccccc1)c1ccccc1)C(F)(F)F)N(C)C1CCCC1.Cl (mixture of isomers) [Compound C15, 2′-O-[4-N-methyl-N-cyclopentylamino-2-trifluoromethyl-2-fluorooctanoyl]paclitaxel hydrochloride] | 34.2 | 45.3 | 58.2 |  |  |  |  |  |  |  | 
